Source: paper PMC5858991 (Neuropharmacology, 2018)
Where “and” joins values, the source holds several entries; their conditions need not be identical. Equal entries are not always repeated. Where two headings read alike, the source gives them in different places.

What was measured:
σ1R [1] = target: σ1R (Cavia porcellus, UniProt Q60492); test: σ1R radioligand binding in guinea pig cortex with [3H]-
σ1R [2] = target: T1, σ1R (Homo sapiens, UniProt Q99720); format: binding; details: for displacement kinetics of [3H]-(+)-pentazocine: membrane preparation and whole cells, 15 min of incubation
T1 sequence (Q99720 whole entry): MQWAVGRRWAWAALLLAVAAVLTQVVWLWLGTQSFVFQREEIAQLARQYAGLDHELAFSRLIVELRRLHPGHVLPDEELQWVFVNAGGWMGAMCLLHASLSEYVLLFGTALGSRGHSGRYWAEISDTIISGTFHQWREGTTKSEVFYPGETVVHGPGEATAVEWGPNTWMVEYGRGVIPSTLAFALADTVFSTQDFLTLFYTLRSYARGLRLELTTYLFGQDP

σ1R homomer = σ1R homomer (Homo sapiens, UniProt Q99720); test: Drug induced σ1R homomer BRET; format: cell-based; details: for effect on σ1R homomer BRET signaling: 2.5-60 min
Chain of σ1R homomer (Q99720 whole entry): as above
Chain of σ1R homomer (Q99720 whole entry): as above

σ1R [3] = target: T1, σ1R; format: binding; details: HEK 293T membrane; for Ki: read-out: Ki ± SEM, competition vs. 3 nM [3H]-(+)-pentazocine
σ1R [4] = target: T1, σ1R; format: binding; details: read-out: Ki ± SEM; competition vs. 2 nM [3H]-haloperidol, HEK 293T membrane
[5] = Experimentally determined pKa
[6] = read-out: Ki ± SEM, competition vs. 3 nM [3H]-(+)-pentazocine, guinea pig cortex
[7] = 1 μM haloperidol or 1 μM PD144418 added prior to tested ligand
[8] = single-ligand mode, σ1-NL:σ1-VN

Chain of σ1R (Cavia porcellus, UniProt Q60492) (Q60492 whole entry): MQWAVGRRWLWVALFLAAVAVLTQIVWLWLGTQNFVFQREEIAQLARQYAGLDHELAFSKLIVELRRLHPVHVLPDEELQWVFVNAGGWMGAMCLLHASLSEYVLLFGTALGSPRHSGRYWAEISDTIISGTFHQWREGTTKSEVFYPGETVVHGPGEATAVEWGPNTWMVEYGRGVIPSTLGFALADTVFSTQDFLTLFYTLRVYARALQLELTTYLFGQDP

SMILES: CCCN(CCC)CCc1ccc(OC)c(OCCc2ccccc2)c1 [NE-100]
- Ki (σ1R [1]; [6]): 1.14 ± 0.283 nM
- displacement kinetics of [3H]-(+)-pentazocine (σ1R [2]): immediate displacement
- effect on σ1R homomer BRET in competition mode (σ1R homomer; [7]): dose-dependent effects
- effect on σ1R homomer BRET signaling (σ1R homomer; [8]): no detectable effects on BRET signaling

SMILES: CCCN1CCC=C(c2cc(-c3ccc(C)cc3)no2)C1 [PD144418]
- Ki (σ1R [1]; [6]): 0.842 ± 0.307 nM
- Ki (σ1R [3]): 0.894 ± 0.11 nM
- Ki (σ1R [4]): 2.67 ± 0.578 nM
- Emax (basal subtracted BRET change) (σ1R homomer; [8]): ~0.02
- effect on σ1R homomer BRET signaling (σ1R homomer; [8]): positive dose-dependent induction of BRET signaling

SMILES: c1ccc(CCCCN2CCC(c3ccccc3)CC2)cc1 [4-PPBP]
- Ki (σ1R [1]; [6]): 0.857 ± 0.153 nM
- effect on σ1R homomer BRET in competition mode (σ1R homomer; in the presence of 1 μM PD144418): positive BRET signals were induced
- effect on σ1R homomer BRET signaling (σ1R homomer; [8]): positive dose-dependent induction of BRET signaling

SMILES: COC(=O)[C@H]1[C@@H](OC(=O)c2ccccc2)C[C@@H]2CC[C@H]1N2C [cocaine]
- Ki (σ1R [1]): 3710 ± 1170 nM
- effect on σ1R homomer BRET in competition mode (σ1R homomer; [7]): dose-dependent effects
- effect on σ1R homomer BRET signaling (σ1R homomer; [8]): no detectable effects on BRET signaling

SMILES: CC(C)=CCN1CC[C@]2(C)c3cc(O)ccc3C[C@H]1[C@H]2C [[^3H]-(+)-pentazocine]
- Bmax ± SEM (σ1R [3]; [3H]-(+)-pentazocine): 2080 fmol/mg and 2080 ± 163 fmol/mg

SMILES: O=C(OCCN1CCOCC1)C1(c2ccccc2)CCCCC1 [PRE-084, 2-(4-morpholinethyl)1 phenylcyclohexanecarboxylate]
- displacement of [3H]-(+)-pentazocine (σ1R [2]; membrane preparation, 15 and 120 min): 92.4–96.1%
- displacement of [3H]-(+)-pentazocine (σ1R [2]; whole cell assay, 15 min): 60.6%
- displacement of [3H]-(+)-pentazocine (σ1R [2]; whole cell assay, 120 min): below 76.1%
- effect on σ1R homomer BRET in competition mode (σ1R homomer; [7]): dose-dependent effects
- effect on σ1R homomer BRET signaling (σ1R homomer; [8]): no detectable effects on BRET signaling
- experimentally determined pKa [5]: 6.2

SMILES: CC(C)=CCN1CC[C@]2(C)c3cc(O)ccc3C[C@H]1[C@H]2C [(+)-pentazocine]
- pKa [5]: 9.2 to 9.3

SMILES: CCCCN1[C@@H]2CC[C@H]1CC(OC(c1ccc(F)cc1)c1ccc(F)cc1)C2 (some centres unmarked) [JHW007]
- Ki (σ1R [1]; [6]): 1.48 ± 0.289 nM
- Ki (σ1R [3]): 0.554 ± 0.172 nM
- Ki (σ1R [4]): 1.85 ± 0.0579 nM
- displacement kinetics of [3H]-(+)-pentazocine (σ1R [2]): immediate displacement
- effect on σ1R homomer BRET in competition mode (σ1R homomer; [7]): dose-dependent effects
- effect on σ1R homomer BRET signaling (σ1R homomer; [8]): no detectable effects on BRET signaling
